Measured values published in patent publication US20250032625A1, “HETEROBIFUNCTIONAL MOLECULES AS TEAD INHIBITORS” (Merck Patent GmbH, priority 2021, published 2025).
pKd: −log10 of the molar value. Read-outs that look alike come from different tables or passages of the source.

Columns and labels:
TEAD1 in NCI-H226 cells = TEAD1 in NCI-H226 cells (Homo sapiens (Human), UniProt P28347); assay: TEAD degradation in NCI-H226 cell line (immunofluorescence); format: cell-based
Procedure, shortened: (§1)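 SK-HEP1 and NCI-H226 cells were treated in duplicate for 16 or 24 h at 37 °C with compound (10 points, 1:3, top 30 µM final). After fixation, TEAD1 was immunostained with anti-TEF1 and per-cell fluorescence quantified by high-content imaging. DC50 from curve fitting.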

hsTEAD1 (209-426) [1] = molecular target: T1, hsTEAD1 (209-426) (Homo sapiens (Human), UniProt P28347); assay: Surface Plasmon Resonance (SPR) assay; format: binding; settings: Biacore 4000, 15° C., 1:1 Langmuir model, read-out: KD TEAD1 (209-426)
Protocol: The kinetic and affinity parameters of protein-exemplary compound interactions were evaluated by SPR. hsTEAD1 (209-426) was immobilized onto a CM7 (Series S) sensor chip via the standard amine coupling procedure, at 15° C. Prior to immobilization, the carboxymethylated surface of the chip was activated with 400 mM 1-ethyl-3-(3-dimethylaminopropyl)-carbodiimide and 100 mM N-hydroxysuccinimide for 10 min. hsTEAD1 (209-426) was diluted to 11 μg/mL in 10 mM Bis-Tris at pH 6.5 and immobilized on the activated surface chip for 8 and 10 min, in order to reach 6000 to 9000 response units (RU). The remaining activated carboxymethylated groups were blocked with a 7 min injection of 1 M ethanolamine pH 8.5 after which the surface chip was washed with 0.5% (w/v) sodium dodecyl sulphate and 50 mM glycine. HBS-N, which consists of 10 mM HEPES pH 7.4 and 150 mM NaCl, was used as the background buffer during immobilization. Exemplary compounds were prediluted in DMSO, diluted 1:50 in running buffer (20 mM Tris pH 7.4, 150 mM NaCl, 1 mM DTT, 5 mM MgCl2, 0.1 mM EGTA, 0.05% CHAPS) and injected at ten different concentrations using two-fold dilution series, from 100 μM to 0.2 μM. A DMSO solvent correction (1%-3%) was performed to account for variations in bulk signal and to achieve high-quality data. Interaction analysis cycles consisted of a 240 sec sample injection (30 μL/min; association phase) followed by 600 sec of buffer flow (dissociation phase).
All sensorgrams were processed by first subtracting the binding response recorded from the control surface (reference spot), followed by subtracting of the buffer blank injection from the reaction spot. All datasets were fit to a simple 1:1 Langmuir interaction model to determine the kinetic rate constants, KD. Experiments were performed on a Biacore 4000 (Cytiva, Uppsala, Sweden) at 15° C. and the interactions were evaluated using the provided Biacore 4000 evaluation software.

TEAD1 in SK-HEP1 cells = TEAD1 in SK-HEP1 cells (Homo sapiens (Human), UniProt P28347); assay: TEAD degradation in SK-HEP1 cell line (immunofluorescence); format: cell-based
Procedure, shortened: as §1

hsTEAD1 (209-426) [2] = molecular target: T1, hsTEAD1 (209-426); assay: Thermal shift measurement / Differential Scanning Fluorimetry (DSF); format: binding; settings: 100 uM compound, 2 hours at 4° C., triplicates; read-out: ΔTm TEAD1 (209-426)
Protocol: (§2) Interaction of exemplary compounds with the various TEAD isoforms TEAD1, TEAD2, TEAD3, and TEAD4 was performed in a DSF assay. YAP-binding domains (YBD) of the four isoforms were subcloned and heterogeneously expressed in E. coli as a host. Initial purification was perfomed by using affinity tags, which got removed by overnight protease treatment. Further purification of TEAD isoforms was performed by Size-Exclusion Chromatography (SEC). Target protein containing fractions were pooled, concentrated with an Amicon (10 KDa MWCO) and quantified using the Bradford assay. Exemplary compound testing in the DSF assay for determining the shift of the TEAD isoform melting temperatures has been performed as described below: DSF was performed in MicroAmpTM EnduraPlateTM Optical 96-Well Clear Reaction Plates (Applied Biosystems, Life Technologies, California, USA) using a QuantStudio 7 Flex Real-Time PCR System (Applied Biosystems). Protein samples were briefly centrifuged before preparation. The final reaction mixture (20 μL of total volume) contained 11.8 μM of […]1 (209-426), 7.3 μM of […]2 (217-447), 7.9 μM of […]3 (216-435) or 11.7 μM of […]4 (217-424), and 2 or 4-fold of Protein Thermal ShiftTM Dye (Applied Biosystems) diluted in protein buffer-20 mM Tris pH 8.0, 150 mM NaCl (+0.5 mM TCEP for TEAD1 experiments). Prior to the addition of the dye, proteins were incubated with either 1 μL DMSO 100% (apo) or 100 uM of each exemplary compound (1 μL at 2 mM in 100% DMSO added to the […] reaction mixture) for 2 hours at 4° C. The melting curve data was recorded from 25 to 90° C. with an increment rate of 0.016° C.s^-1. Excitation and emission filters were applied for Protein Thermal ShiftTM Dye (470 nm and 520 nm, respectively) and for ROX reference dye (580 nm and 623 nm, respectively). The melting temperatures (Tm) were obtained by calculating the midpoint of each transition, using the Protein Thermal Shift SoftwareTM version 1.3. The thermal stability effect of each compound (ΔTm) was calculated by subtracting the calculated Tm in presence and absence (apo) of compound. All samples were tested in triplicates.

hsTEAD3 (216-435) = hsTEAD3 (216-435) (Homo sapiens (Human), UniProt Q99594); assay: as above; format: binding; settings: 100 uM compound, 2 hours at 4° C., triplicates; read-out: ΔTm TEAD3 216-435
Protocol: as §2

hsTEAD2 (217-447) = hsTEAD2 (217-447) (Homo sapiens (Human), UniProt Q15562); assay: as above; format: binding; settings: 100 uM compound, 2 hours at 4° C., triplicates; read-out: ΔTm TEAD2 (217-447)
Protocol: as §2

hsTEAD4 (217-424) = hsTEAD4 (217-424) (Homo sapiens (Human), UniProt Q15561); assay: as above; format: binding; settings: 100 uM compound, 2 hours at 4° C., triplicates; read-out: ΔTm TEAD4 217-434
Protocol: as §2

[3] = 24 h incubation, read-out: DC50 NCI-H226 24 h
[4] = 24 hours, ranges, read-out: DC50 NCI-H226
[5] = 24 h incubation, read-out: DC50 SK-HEP1 24 h
[6] = 16 h incubation, read-out: DC50 NCI-H226 16 h
[7] = 24 hours, ranges, read-out: DC50 SK-HEP1

hsTEAD4 (217-424), sequence (Q15561 217-434): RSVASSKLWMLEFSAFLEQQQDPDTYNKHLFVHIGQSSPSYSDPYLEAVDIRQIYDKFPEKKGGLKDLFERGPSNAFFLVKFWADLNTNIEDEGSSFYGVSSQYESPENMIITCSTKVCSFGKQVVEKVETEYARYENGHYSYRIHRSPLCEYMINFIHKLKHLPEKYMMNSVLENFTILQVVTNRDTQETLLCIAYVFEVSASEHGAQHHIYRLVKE
hsTEAD3 (216-435), sequence (Q99594 216-435): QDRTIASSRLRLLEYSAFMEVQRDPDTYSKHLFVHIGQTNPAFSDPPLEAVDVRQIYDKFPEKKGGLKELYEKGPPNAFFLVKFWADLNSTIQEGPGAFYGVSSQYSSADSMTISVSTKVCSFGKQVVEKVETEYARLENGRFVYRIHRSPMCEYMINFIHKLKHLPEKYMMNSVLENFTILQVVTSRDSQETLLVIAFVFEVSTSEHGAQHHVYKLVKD
TEAD1 in NCI-H226 cells, sequence (P28347 whole entry): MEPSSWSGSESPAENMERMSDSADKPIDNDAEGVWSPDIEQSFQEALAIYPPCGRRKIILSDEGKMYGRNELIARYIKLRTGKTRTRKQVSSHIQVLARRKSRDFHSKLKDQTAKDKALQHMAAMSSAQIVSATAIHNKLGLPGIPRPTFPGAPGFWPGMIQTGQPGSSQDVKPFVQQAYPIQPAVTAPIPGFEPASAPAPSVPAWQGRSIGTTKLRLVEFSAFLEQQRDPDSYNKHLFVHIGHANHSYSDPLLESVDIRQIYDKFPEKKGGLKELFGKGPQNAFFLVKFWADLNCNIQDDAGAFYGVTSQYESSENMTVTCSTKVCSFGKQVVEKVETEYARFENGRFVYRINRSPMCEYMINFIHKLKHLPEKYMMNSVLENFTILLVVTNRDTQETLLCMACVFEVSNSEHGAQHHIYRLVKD
TEAD1 in SK-HEP1 cells, sequence (P28347 whole entry): as above
T1 sequence (P28347 209-426): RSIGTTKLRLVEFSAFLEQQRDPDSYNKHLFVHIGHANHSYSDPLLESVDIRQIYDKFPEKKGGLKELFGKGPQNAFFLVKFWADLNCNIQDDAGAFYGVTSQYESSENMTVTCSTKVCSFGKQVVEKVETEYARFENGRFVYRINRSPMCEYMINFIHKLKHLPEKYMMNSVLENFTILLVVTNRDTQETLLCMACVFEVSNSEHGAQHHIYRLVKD
hsTEAD2 (217-447), sequence (Q15562 217-447): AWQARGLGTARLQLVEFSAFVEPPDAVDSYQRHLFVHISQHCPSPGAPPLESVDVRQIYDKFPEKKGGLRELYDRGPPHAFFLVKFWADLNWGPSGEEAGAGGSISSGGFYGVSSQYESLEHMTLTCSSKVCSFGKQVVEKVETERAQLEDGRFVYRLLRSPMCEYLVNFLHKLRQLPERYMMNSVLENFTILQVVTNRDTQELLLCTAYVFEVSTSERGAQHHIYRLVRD

Row | Structure (SMILES) | DC50 (TEAD1 in NCI-H226 cells; [3]) [nM] | DC50 (TEAD1 in NCI-H226 cells; [4]) [nM] | pKd (hsTEAD1 (209-426) [1]) | DC50 (TEAD1 in SK-HEP1 cells; [5]) [nM] | ΔTm at 100 µM (hsTEAD1 (209-426) [2]) [°C] | ΔTm at 100 µM (hsTEAD3 (216-435)) [°C] | ΔTm at 100 µM (hsTEAD2 (217-447)) [°C] | ΔTm at 100 µM (hsTEAD4 (217-424)) [°C] | DC50 (TEAD1 in NCI-H226 cells; [6]) [nM] | DC50 (TEAD1 in SK-HEP1 cells; 16 h incubation, read-out: DC50 SK-HEP1 16 h) [nM] | DC50 (TEAD1 in SK-HEP1 cells; [7]) [nM]
1 | Cn1cc2c3cc(C(=O)NCCOCCOCCNC(=O)COc4cccc5c4C(=O)N(C4CCC(=O)NC4=O)C5=O)ccc3n(-c3ccc(C(F)(F)F)cc3)c2n1 (stereo not drawn) [Compound 5, 2-{[2-(2,6-dioxopiperidin-3-yl)-1,3-dioxo-2,3-dihydro-1H-isoindol-4-yl]oxy}-N-(2-{2-[2-({2-methyl-8-[4-(trifluoromethyl)phenyl]-2H,8H-pyrazolo[3,4-b]indol-5-yl}formamido)ethoxy]ethoxy}ethyl)acetamide] | 20000 | 9000 to 30000 | 5.72 | 30000 | 3.9 | 0.9 | -0.1 | 2.8 | – | – | –
2 | Cc1ncsc1-c1ccc(CNC(=O)[C@@H]2C[C@@H](O)CN2C(=O)[C@@H](NC(=O)CCCCCC(=O)NCCOCCOCCNC(=O)c2ccc3c(c2)c2cn(C)nc2n3-c2ccc(C(F)(F)F)cc2)C(C)(C)C)cc1 [Compound 4, N-[(2S)-1-[(2S,4R)-4-hydroxy-2-({[4-(4-methyl-1,3-thiazol-5-yl)phenyl]methyl}carbamoyl)pyrrolidin-1-yl]-3,3-dimethyl-1-oxobutan-2-yl]-N′-(2-{2-[2-({2-methyl-8-[4-(trifluoromethyl)phenyl]-2H,8H-pyrazolo[3,4-b]indol-5-yl}formamido)ethoxy]ethoxy}ethyl) heptanediamide] | 900 | 1000 to 3000 | 6.49 | 2000 | 2.9 | 0.6 | 1 | 0 | 700 | 2000 | 100 to 1000
3 | Cn1cc2c3cc(C(=O)NCCOCCOCCNC(=O)COCCOCCOCC(=O)Nc4cccc5c4C(=O)N(C4CCC(=O)NC4=O)C5=O)ccc3n(-c3ccc(C(F)(F)F)cc3)c2n1 (stereo not drawn) [Compound 2, 2-{2-[2-({[2-(2,6-dioxopiperidin-3-yl)-1,3-dioxo-2,3-dihydro-1H-isoindol-4-yl]carbamoyl}methoxy)ethoxy]ethoxy}-N-(2-{2-[2-({2-methyl-8-[4-(trifluoromethyl)phenyl]-2H,8H-pyrazolo[3,4-b]indol-5-yl}formamido)ethoxy]ethoxy}ethyl)acetamide] | – | – | 5.82 | – | 4.1 | 1.3 | 0.7 | 0 | – | – | –
4 | Cn1cc2c3cc(C(=O)NCCOCCOCCNC(=O)COCCOCCOCCOCCOCC(=O)Nc4cccc5c4C(=O)N(C4CCC(=O)NC4=O)C5=O)ccc3n(-c3ccc(C(F)(F)F)cc3)c2n1 (stereo not drawn) [Compound 1, N′-[2-(2,6-dioxopiperidin-3-yl)-1,3-dioxo-2,3-dihydro-1H-isoindol-4-yl]-N-(2-{2-[2-({2-methyl-8-[4-(trifluoromethyl)phenyl]-2H,8H-pyrazolo[3,4-b]indol-5-yl}formamido)ethoxy]ethoxy}ethyl)-3,6,9,12,15-pentaoxaheptadecanediamide] | – | – | 5.73 | – | 4.7 | 0 | 0 | – | – | – | –
5 | Cc1ncsc1-c1ccc(CNC(=O)[C@H]2C[C@H](O)CN2C(=O)[C@H](NC(=O)COCCOCCOCCOCCOCCNC(=O)c2ccc3c(c2)c2cn(C)nc2n3-c2ccc(C(F)(F)F)cc2)C(C)(C)C)cc1 [Compound 11, (2R,4S)-1-[(2R)-3,3-dimethyl-2-[17-({2-methyl-8-[4-(trifluoromethyl)phenyl]-2H,8H-pyrazolo[3,4-b]indol-5-yl}formamido)-3,6,9,12,15-pentaoxaheptadecanamido]butanoyl]-4-hydroxy-N-{[4-(4-methyl-1,3-thiazol-5-yl)phenyl]methyl}pyrrolidine-2-carboxamide] | – | 100 to 1000 | – | – | 4.5 | 1.3 | 0.3 | -0.2 | – | – | 100 to 1000
6 | Cc1ncsc1-c1ccc(CNC(=O)[C@@H]2C[C@@H](O)CN2C(=O)[C@@H](NC(=O)COCCOCCOCCOCC(=O)NCCOCCOCCNC(=O)c2ccc3c(c2)c2cn(C)nc2n3-c2ccc(C(F)(F)F)cc2)C(C)(C)C)cc1 [Compound 3, N-[(2S)-1-[(2S,4R)-4-hydroxy-2-({[4-(4-methyl-1,3-thiazol-5-yl)phenyl]methyl}carbamoyl)pyrrolidin-1-yl]-3,3-dimethyl-1-oxobutan-2-yl]-N′-(2-{2-[2-({2-methyl-8-[4-(trifluoromethyl)phenyl]-2H,8H-pyrazolo[3,4-b]indol-5-yl}formamido)ethoxy]ethoxy}ethyl)-3,6,9,12-tetraoxatetradecanediamide] | 10000 | – | 6.49 | – | 3.4 | – | – | 0.7 | 3000 | – | –
